Test results published in publication PMC9232105, “S-Adenosylmethionine–responsive cystathionine β-synthase modulates sulfur metabolism and redox balance in Mycobacterium tuberculosis” (Science Advances, 2022).

What was measured:
[1] = target: T1, cystathionine β-synthase (MtbCbs, Rv1077) (Mycobacterium tuberculosis, UniProt P9WP51); test: acid-ninhydrin and LC-MS/MS cystathionine formation; lead acetate kinetics with Cys; format: biochemical; parameters: gene cbs; full-length WT MtbCbs
[2] = target: T1, cystathionine β-synthase (MtbCbs, Rv1077); test: biochemical; format: binding; parameters: gene cbs; full-length WT MtbCbs, C-terminal 6×His
[3] = target: T1, cystathionine β-synthase (MtbCbs, Rv1077); test: cryo-EM ([…] Å) with SAM + Ser; cystathionine formation by acid-ninhydrin and LC-MS/MS; format: binding; parameters: gene cbs; full-length WT MtbCbs
[4] = target: T1, cystathionine β-synthase (MtbCbs, Rv1077); format: biochemical; parameters: gene cbs; full-length WT MtbCbs
[5] = target: the molecule itself; test: SEC + SEC-MALS

## NC(CCS)C(=O)O [L-Hcys]
[1]
  acid-ninhydrin and LC-MS/MS cystathionine formation; lead acetate kinetics with: MtbCbs produces Cysth from Ser + Hcys and Cys + Hcys

## C[S+](CC[C@H](N)C(=O)[O-])C[C@H]1O[C@@H](n2cnc3c(N)ncnc32)[C@H](O)[C@@H]1O (some centres unmarked) [S-adenosylmethionine]
[2]
  Kd: ~128 µM

## N[C@@H](CO)C(=O)O [L-serine]
[3]
  cryo-EM (4.25 Å) with SAM + Ser; cystathionine formation by acid-ninhydrin and L: formation of external aldimine/aminoacrylate at the active site, which indicates association of Ser with PLP

## N[C@@H](CS)C(=O)O [L-cysteine]
[4]
  lead acetate H2S assay with steady-state kinetics; LC-MS/MS of lanthionine: lead-acetate assay confirmed that MtbCbs generates H2S using Cys or Hcys + Cys but not from Hcys alone

B1: Mycobacterium tuberculosis cystathionine β-synthase (MtbCbs, Rv1077), wild type (enzyme)
chain: MRIAQHISELIGGTPLVRLNSVVPDGAGTVAAKVEYLNPGGSSKDRIAVKMIEAAEASGQLKPGGTIVEPTSGNTGVGLALVAQRRGYKCVFVCPDKVSEDKRNVLIAYGAEVVVCPTAVPPHDPASYYSVSDRLVRDIDGAWKPDQYANPEGPASHYVTTGPEIWADTEGKVTHFVAGIGTGGTITGAGRYLKEVSGGRVRIVGADPEGSVYSGGAGRPYLVEGVGEDFWPAAYDPSVPDEIIAVSDSDSFDMTRRLAREEAMLVGGSCGMAVVAALKVAEEAGPDALIVVLLPDGGRGYMSKIFNDAWMSSYGFLRSRLDGSTEQSTVGDVLRRKSGALPALVHTHPSETVRDAIGILREYGVSQMPVVGAEPPVMAGEVAGSVSERELLSAVFEGRAKLADAVSAHMSPPLRMIGAGELVSAAGKALRDWDALMVVEEGKPVGVITRYDLLGFLSEGAGRR
modifications: PLP bound to K44 (internal aldimine)
notes: also called WT MtbCbs; native MtbCbs
[5]
  stoichiometry N: 4
